Assay results reported in patent publication US20080146617A1, “Methods of treating inflammatory diseases” (Roche Palo Alto LLC, priority 2006, published 2008).

How the values were obtained:
EPHA2 = biological target: T1, EPHA2 (Homo sapiens, UniProt P29317); experiment: KinomeScan kinase profiling; assay type: binding
T1 construct: purchased Ambit Biosciences (San Diego, Calif.)
Description: (§2) The selectivity of a given CK1δ, CK1ε or CK1δ-CK1ε inhibitor compound can be determined by testing the compound against a panel of known kinases. An example of such a kinase profiling technology is the “KinomeScan” from Ambit Biosciences in which compounds can be screened for their modulatory activities against more than 200 known kinases.

FGFR2 = biological target: T2, FGFR2 (Homo sapiens, UniProt P21802); experiment: KinomeScan kinase profiling; assay type: binding
T2 construct: purchased Ambit Biosciences (San Diego, Calif.)
Description: as §2

PKAC-alpha = biological target: T3, PKAC-alpha (Homo sapiens, UniProt P17612); experiment: KinomeScan kinase profiling; assay type: binding
T3 construct: purchased Ambit Biosciences (San Diego, Calif.)
Description: as §2

EPHB4 = biological target: T4, EPHB4 (Homo sapiens, UniProt P54760); experiment: KinomeScan kinase profiling; assay type: binding
T4 construct: purchased Ambit Biosciences (San Diego, Calif.)
Description: as §2

[1] = tested on: IL-8 production in neutrophils; experiment: Neutrophil assay: IL-8 production after stimulation by inflammatory agents; assay type: cell-based; conditions: human neutrophils stimulated by inflammatory agents, FIG. 2
Description: (§1) Selective CK1δ, CK1ε or CK1δ-CK1ε inhibitors can be tested for their antiinflammatory effects using a variety of in vitro and in vivo tests that are well known in the art. One such in vitro test involves the application of the inhibitor to human neutrophils to observe whether the induction of inflammatory cytokines, such as IL-8, by tumor necrosis factor (TNF) or lipopolysaccharide (LPS) can be reduced. This test is further described in Example 2. An example of an in vivo test, as described in Example 3, is the air pouch model of inflammatory synovitis in mice in which the inhibitors are tested for their blockade of neutrophil influx as well as of inflammatory cytokine accumulation.
The Histopaque 1077 and 1119 gradient density centrifugation method (Sigma-Aldrich) was used to isolate granulocytes from human blood. The granulocytes were recovered from the 1077/1119 interphase, washed twice with PBS. The red blood cells were lysed with PureGene red cell lysis buffer (Gentra Biosystems). The cells were washed again and resuspended in growth media (RPMI, 10% FBS, β-mercaptoethanol, Pen/Strep/glutamine and sodium pyruvate) at a density of 1 to 5 million per ml. […] The supernatant was analyzed for cytokine production (Luminex human 22-plex assay) and the cells were lysed for RNA production and analysis.

FGR = biological target: T5, FGR (Homo sapiens, UniProt P09769); experiment: KinomeScan kinase profiling; assay type: binding
T5 construct: purchased Ambit Biosciences (San Diego, Calif.)
Description: as §2

inflammatory synovitis = experiment: Air pouch synovitis model; assay type: in vivo, Balbc/J mice; conditions: 1 μg LPS, FIG. 3
Description: as §1
Adult Balbc/J mice were purchased from Charles River Labs and housed and utilized according IACUC protocols and standards. The airpouch was inflated on the dorsal surface of each mouse with 3 ml of air, after light anesthesia with CO2/O2 mix. Three days later each pouch was re-inflated with 3 mls of air. After an additional three days, the pouches were injected with vehicle or compound (normally in 0.1% DMSO in PBS) in 1 ml per pouch. After 20 to 30 minutes, each pouch received 1 μg of LPS or control (PBS). The animals were euthanized four to six hours later. The pouches were flushed with 2 ml of PBS, the cells were then collected, counted and normalized for volume recovered. The fluid recovered was analyzed for cytokine production (Luminex Mouse 21-plex assay). The cells were lysed for RNA or protein analysis.

LCK = biological target: T6, LCK (Homo sapiens, UniProt P06239); experiment: KinomeScan kinase profiling; assay type: binding
T6 construct: purchased Ambit Biosciences (San Diego, Calif.)

AURKA = biological target: T7, AURKA (Homo sapiens, UniProt O14965); experiment: KinomeScan kinase profiling; assay type: binding
T7 construct: purchased Ambit Biosciences (San Diego, Calif.)
Description: as §2

BRAF(V600E) = biological target: T8, BRAF(V600E) (Homo sapiens, UniProt P15056, V600E); experiment: KinomeScan kinase profiling; assay type: binding
T8 construct: purchased Ambit Biosciences (San Diego, Calif.)
Description: as §2

BRAF = biological target: T9, BRAF (Homo sapiens, UniProt P15056); experiment: KinomeScan kinase profiling; assay type: binding
T9 construct: purchased Ambit Biosciences (San Diego, Calif.)
T9 sequence (P15056 whole entry): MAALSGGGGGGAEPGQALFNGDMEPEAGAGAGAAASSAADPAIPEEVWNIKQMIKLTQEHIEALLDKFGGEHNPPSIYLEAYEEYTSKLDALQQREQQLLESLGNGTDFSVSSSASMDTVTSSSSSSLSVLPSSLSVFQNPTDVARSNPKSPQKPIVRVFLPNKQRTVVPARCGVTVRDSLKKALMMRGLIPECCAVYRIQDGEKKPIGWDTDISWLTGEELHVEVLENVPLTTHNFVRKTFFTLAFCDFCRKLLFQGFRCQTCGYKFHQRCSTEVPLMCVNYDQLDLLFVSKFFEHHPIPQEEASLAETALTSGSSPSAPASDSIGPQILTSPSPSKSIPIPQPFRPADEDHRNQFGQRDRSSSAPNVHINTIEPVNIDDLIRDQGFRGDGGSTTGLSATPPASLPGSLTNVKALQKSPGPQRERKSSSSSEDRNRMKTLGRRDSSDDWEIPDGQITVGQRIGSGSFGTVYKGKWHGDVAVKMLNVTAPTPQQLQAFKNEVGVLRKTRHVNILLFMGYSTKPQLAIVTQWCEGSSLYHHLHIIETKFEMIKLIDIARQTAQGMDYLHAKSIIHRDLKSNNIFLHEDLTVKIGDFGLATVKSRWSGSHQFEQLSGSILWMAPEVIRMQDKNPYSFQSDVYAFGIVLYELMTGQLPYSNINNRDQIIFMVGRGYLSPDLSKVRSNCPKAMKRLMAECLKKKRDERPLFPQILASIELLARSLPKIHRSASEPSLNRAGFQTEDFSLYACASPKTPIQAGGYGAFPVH
Description: as §2

T6 sequence (P06239 whole entry): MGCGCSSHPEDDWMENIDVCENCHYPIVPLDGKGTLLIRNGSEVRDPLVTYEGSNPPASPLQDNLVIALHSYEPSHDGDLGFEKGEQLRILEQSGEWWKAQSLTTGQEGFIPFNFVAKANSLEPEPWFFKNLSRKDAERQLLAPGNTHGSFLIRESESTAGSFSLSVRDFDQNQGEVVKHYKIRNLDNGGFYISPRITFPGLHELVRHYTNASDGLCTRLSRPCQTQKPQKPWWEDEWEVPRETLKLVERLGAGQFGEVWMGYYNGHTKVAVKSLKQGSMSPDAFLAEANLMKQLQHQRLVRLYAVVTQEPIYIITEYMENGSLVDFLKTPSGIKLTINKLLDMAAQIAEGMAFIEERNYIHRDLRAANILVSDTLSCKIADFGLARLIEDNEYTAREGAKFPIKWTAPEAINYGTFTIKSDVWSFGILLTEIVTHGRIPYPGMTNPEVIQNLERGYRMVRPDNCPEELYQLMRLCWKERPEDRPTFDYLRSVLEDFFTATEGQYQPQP
T1 sequence (P29317 24-976): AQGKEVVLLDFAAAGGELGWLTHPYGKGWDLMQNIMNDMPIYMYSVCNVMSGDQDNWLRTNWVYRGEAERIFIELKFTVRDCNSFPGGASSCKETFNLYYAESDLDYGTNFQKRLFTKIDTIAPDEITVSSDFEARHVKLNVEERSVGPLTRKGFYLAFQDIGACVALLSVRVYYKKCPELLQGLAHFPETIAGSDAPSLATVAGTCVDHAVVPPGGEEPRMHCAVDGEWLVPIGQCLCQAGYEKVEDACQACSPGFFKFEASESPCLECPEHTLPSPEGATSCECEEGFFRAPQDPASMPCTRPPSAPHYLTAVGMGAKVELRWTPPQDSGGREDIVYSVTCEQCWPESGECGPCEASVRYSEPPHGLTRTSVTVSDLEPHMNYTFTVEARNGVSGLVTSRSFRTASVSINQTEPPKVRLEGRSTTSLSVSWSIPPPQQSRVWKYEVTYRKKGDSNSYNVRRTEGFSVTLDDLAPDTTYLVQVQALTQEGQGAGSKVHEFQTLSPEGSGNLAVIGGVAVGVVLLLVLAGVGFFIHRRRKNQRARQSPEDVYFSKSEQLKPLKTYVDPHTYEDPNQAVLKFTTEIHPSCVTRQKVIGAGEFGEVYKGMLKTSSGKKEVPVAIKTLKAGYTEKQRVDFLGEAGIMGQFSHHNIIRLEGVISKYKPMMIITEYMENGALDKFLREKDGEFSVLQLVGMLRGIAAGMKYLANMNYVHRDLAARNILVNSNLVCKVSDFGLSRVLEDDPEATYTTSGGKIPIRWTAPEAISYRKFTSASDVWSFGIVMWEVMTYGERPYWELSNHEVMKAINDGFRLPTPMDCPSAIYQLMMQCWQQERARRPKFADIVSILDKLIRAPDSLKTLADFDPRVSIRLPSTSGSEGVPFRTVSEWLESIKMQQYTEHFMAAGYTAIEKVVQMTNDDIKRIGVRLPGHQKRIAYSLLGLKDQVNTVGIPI
T5 sequence (P09769 whole entry): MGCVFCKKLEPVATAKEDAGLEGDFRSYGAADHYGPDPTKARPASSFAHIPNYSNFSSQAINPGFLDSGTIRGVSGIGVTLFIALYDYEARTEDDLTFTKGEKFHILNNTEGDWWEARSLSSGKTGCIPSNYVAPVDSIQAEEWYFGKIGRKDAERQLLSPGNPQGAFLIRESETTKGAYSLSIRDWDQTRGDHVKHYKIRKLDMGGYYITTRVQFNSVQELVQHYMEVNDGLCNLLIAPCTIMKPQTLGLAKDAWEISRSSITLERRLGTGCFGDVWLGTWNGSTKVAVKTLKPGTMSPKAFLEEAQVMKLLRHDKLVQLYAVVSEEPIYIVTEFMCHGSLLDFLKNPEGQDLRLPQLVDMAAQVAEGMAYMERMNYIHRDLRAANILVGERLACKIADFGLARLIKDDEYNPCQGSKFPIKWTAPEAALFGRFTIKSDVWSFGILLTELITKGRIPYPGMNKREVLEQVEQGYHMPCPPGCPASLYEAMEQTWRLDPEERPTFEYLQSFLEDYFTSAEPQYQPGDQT
T4 sequence (P54760 16-987): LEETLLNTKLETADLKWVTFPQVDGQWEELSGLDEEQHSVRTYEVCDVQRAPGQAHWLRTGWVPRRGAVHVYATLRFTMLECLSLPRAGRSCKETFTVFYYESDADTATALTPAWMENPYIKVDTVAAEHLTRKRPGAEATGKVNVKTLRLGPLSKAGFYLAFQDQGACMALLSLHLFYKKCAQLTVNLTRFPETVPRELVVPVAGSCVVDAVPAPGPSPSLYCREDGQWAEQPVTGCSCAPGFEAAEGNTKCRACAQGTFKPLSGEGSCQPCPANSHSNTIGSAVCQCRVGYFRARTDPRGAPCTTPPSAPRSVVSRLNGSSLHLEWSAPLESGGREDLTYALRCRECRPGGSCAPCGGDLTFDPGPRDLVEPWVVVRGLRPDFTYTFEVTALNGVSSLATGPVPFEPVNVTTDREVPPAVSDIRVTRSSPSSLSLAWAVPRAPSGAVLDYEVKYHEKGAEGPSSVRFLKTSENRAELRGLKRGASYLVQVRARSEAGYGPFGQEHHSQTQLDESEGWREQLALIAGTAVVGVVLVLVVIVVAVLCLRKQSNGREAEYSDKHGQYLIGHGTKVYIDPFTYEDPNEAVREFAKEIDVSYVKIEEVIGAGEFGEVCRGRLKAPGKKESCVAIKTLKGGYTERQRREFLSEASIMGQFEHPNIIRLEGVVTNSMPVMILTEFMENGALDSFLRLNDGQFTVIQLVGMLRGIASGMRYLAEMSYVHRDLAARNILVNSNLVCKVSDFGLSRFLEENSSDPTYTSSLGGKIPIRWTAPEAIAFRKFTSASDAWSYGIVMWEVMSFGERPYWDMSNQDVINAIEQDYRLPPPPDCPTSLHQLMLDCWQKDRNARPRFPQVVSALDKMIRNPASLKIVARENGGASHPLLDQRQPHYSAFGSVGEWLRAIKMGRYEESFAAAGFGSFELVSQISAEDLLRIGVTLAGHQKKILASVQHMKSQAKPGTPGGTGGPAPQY
T2 sequence (P21802 22-821): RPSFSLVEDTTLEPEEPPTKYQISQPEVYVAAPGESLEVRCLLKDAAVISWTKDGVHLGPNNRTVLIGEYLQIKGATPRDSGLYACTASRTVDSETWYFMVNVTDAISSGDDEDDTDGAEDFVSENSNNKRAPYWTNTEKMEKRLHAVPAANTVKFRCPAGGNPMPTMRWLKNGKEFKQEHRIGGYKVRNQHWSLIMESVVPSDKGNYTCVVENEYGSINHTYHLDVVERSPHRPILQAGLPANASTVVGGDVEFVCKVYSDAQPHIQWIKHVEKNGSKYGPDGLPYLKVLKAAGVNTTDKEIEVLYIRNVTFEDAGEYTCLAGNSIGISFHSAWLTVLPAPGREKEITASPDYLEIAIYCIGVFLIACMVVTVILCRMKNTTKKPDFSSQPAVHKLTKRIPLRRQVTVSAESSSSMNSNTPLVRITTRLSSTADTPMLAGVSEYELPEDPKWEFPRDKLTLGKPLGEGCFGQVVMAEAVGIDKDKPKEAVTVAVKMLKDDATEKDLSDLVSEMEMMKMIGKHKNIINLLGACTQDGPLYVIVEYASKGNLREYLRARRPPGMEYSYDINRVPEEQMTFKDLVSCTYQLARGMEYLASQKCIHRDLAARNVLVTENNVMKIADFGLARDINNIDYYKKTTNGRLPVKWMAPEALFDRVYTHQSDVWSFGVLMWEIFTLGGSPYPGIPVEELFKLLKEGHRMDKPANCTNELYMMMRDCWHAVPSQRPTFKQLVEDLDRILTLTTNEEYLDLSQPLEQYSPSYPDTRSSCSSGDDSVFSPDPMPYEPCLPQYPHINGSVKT
T7 sequence (O14965 whole entry): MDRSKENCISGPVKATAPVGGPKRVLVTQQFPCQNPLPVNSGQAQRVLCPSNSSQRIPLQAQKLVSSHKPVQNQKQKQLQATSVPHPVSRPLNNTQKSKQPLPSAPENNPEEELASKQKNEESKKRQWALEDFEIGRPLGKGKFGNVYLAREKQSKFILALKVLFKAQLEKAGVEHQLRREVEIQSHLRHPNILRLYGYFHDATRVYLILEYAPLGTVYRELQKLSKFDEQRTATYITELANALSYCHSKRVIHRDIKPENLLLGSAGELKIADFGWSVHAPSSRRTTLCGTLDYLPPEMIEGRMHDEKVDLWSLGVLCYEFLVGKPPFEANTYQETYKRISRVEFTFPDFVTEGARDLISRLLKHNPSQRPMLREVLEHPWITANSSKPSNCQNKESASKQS
T8 sequence (P15056 whole entry V600E): as the sequence (P15056 whole entry) above, with V600E counted along it

Compound: NC(=O)c1ccc(-c2nc(-c3ccc4c(c3)OCO4)c(-c3ccccn3)[nH]2)cc1 [SB431542, 4-(4-benzo-[1,3]dioxol-5-yl-5-pyridin-2-yl-1H-imidazol-2-yl)benzamide]
- inhibition at 10 µM (EPHA2): < 50%
- inhibition at 10 µM (FGFR2): < 50%
- inhibition at 10 µM (PKAC-alpha): < 50%
- inhibition at 10 µM (EPHB4): < 50%
- inhibition of IL-8 production in neutrophils [1]: dose-dependent inhibition
- inhibition at 10 µM (FGR): < 50%
- production of IL-6 (inflammatory synovitis; mouse air pouch fluid): inhibited
- production of MCP1 (inflammatory synovitis; mouse air pouch fluid): inhibited
- neutrophil influx (inflammatory synovitis; mouse air pouch, compound injected into pouch): inhibited
- inhibition at 10 µM (LCK): < 50%
- inhibition at 10 µM (AURKA): < 50%

Compound: NC(=O)c1ccc(-c2nc(-c3ccc4c(c3)OCCO4)c(-c3ccccn3)[nH]2)cc1 [D4476, 4-[4-(2,3-Dihydro-benzo[1,4]dioxin-6-yl)-5-pyridin-2-yl-1H-imidazol-2-yl]benzamide]
- inhibition at 10 µM (EPHA2): < 50%
- inhibition at 10 µM (FGFR2): < 50%
- inhibition at 10 µM (PKAC-alpha): < 50%
- inhibition at 10 µM (EPHB4): < 50%
- inhibition at 10 µM (BRAF(V600E)): < 50%
- inhibition at 10 µM (FGR): < 50%
- inhibition at 10 µM (LCK): < 50%
- inhibition at 10 µM (AURKA): < 50%
- inhibition at 10 µM (BRAF): < 50%
